Results taken from patent US10844102B2, “Peptides, compositions, and methods for stimulating subcutaneous adipogenesis” (The Regents of the University of California, priority 2014, dated 2020).

How the values were obtained:
[1] = system: rat mesenchymal stem cells; assay: Assay 2: adipogenesis, Oil Red O staining (differentiation of pre-adipocytes into adipocytes); assay type: cell-based; details: for adipogenic activity in Assay 2: Assay 2, Oil Red O, concentration not given; for adipogenesis quantified by Oil Red O staining, fold change relative to the negative control: three weeks
Experimental: Reagents: The Dexamethasone, IBMX, Insulin, and Oil Red O Solutions were the same as described above for assay 1. Indomethacin Solution contained 10 mM indomethacin in methanol.
Adipogenesis Maintenance Media was prepared as described above.
Adipogenesis Induction Media: To prepare 501.5 mL of Adipogenesis Induction Media, 50 μL of the 10 mM stock Dexamethasone Solution, 500 μL of the 0.5 M IBMX stock solution, 500 μL of the 10 mg/ml stock Insulin Solution, 5 ml of a 10 mM stock Indomethacin Solution, and 5 mL of a 100× stock solution of penicillin and streptomycin were added to 490 mL of mesenchymal stem cell expansion media.
Pre-adipocyte stem cells, bone marrow mesenchymal stem cells or fibroblasts such as dermal reticular and papillary fibroblasts were propagated using standard tissue culture methods. Cells were trypsinized to remove cells from the substratum, the trypsin was neutralized, and cells were counted using a hemocytometer. Cells were resuspended at 20,000 cells/ml in DMEM containing 10% calf serum. 1 mL of cell suspension per well was plated in a 48-well plate, with several wells left empty for blank well (blank control) staining.
Cells were incubated for 2 days overnight and had reached confluency at this point. Media was removed from each well and replaced with 0.5 ml Adipogenesis Induction Media. For negative control (no insulin, no peptide) wells, expansion medium only was used at this step and for subsequent media changes. For all media changes, media was replaced as gently as possible to avoid disturbing the monolayer.
Cells were incubated for 72 hours at 37° C., 5% CO2. Media was removed and replaced with 0.5 ml of Adipogenesis Maintenance Media containing either RHAMM antagonist peptides (experimental group) or insulin (concentration as in the Adipogenesis Induction Media and used as a positive control). Cells were incubated for at least 96 hours in this media at 37° C., 5% CO2. Media was replaced every 48 hours and experiments were terminated between seven and fourteen days after addition of insulin or peptides.
Media was removed and Oil Red O staining was performed as described above for assay 1.
Assay 1 is an assay that promotes transdifferentiation of fibroblasts into adipocytes, whereas Assay 2 promotes differentiation of multi-potential mesenchymal progenitor cells into adipocytes. Immortalized rat bone marrow mesenchymal stem cells were used for both assays. These cells contain cells of different lineages, including fibroblasts, pre-adipocytes, pre-chondrocytes and pre-osteoblasts. Thus, Assay 1 was used to promote transdifferentiation of fibroblast lineages into adipocytes and Assay 2 was used to promote differentiation of the pre-adipocytes into adipocytes.
As described in Example 1 above, the priming stimulus for Assay 1 includes IBMX (3-isobutyl-1-methylxanthine) and dexamethasone, and then insulin as the final adipogenic stimulus. The priming stimulus for assay 2 includes IBMX, dexamethasone and indomethacin, and then insulin as the final adipogenic stimulus.
Adipogenesis was quantified by Oil Red O staining. The peptide was tested at concentrations of 5 and 50 μg/ml over a period of three weeks. Cells were plated in 48-well culture plates, and the purity of the peptides was >95%. All data are presented as the fold change relative to the negative control (Ctr(−))±standard error. The KSEVSK 6-mer (SEQ ID NO: 7) was used as a positive control.

3T3L cells = assay: Adiponectin ELISA on supernatant medium of primed 3T3L cells; assay type: cell-based, mouse; details: 10 μg/ml peptide, versus no insulin control
Experimental: 3T3L cells were cultured in T75 culture flasks, in expansion medium (Millipore Corporation), and stored in a 5% CO2 humidified incubator at 37° C. Media was changed every two days until the cells reached 80% confluency. Cells were subcultured in a 96 well plate with a seeding density of 3×10^4 cells per cm^2.
Once cells had just reached confluency, expansion media was replaced with 0.5 mL of Adipogenic Induction Media per well containing 5% serum that had been screened for an ability to maintain stem cells in an undifferentiated state (LifeTechnologies). Cells were incubated for 48 hours at 37° C., 5% CO2. The Adipogenic Induction Media contained DMEM (low glucose, Gibco) +5% serum (LifeSciences) with 0.5 mM IBMX solution, 1 μM Dexamethasone Solution, and 100 μM Indomethacin Solution (priming stimulus). After 48 hr the Adipogenic Induction media was replaced with new media containing 10 μg/ml insulin alone (positive control), or 10 μg/ml peptide (experimental conditions). Negative controls were DMEM +5% serum only. Plates were incubated for two days prior to adiponectin ELISA analyses. Peptides were added daily at 10 μg/ml throughout the remainder of the experiment.
Adiponectin present in the supernatant medium was measured using a mouse adiponectin ELISA (Novex, LifeTechnologies). Briefly, supernatant medium was collected and diluted 1:100. One hundred microliters of the diluted supernatant medium was added to each well of the ELISA plate and incubated for one hour at 37° C. Wells were washed three times with 1× wash buffer and then 100 μl of antibody was added to each well and incubated for one hour at 37° C. The wells were then washed and incubated with 100 μl detector antibody for 1 hr at 37° C. The wells were washed five times with wash buffer and 100 μl of substrate solution was added to each well and incubated for twenty minutes in the dark. The reaction was then stopped by the addition of 100 μl stop solution. Plates were read at 450 nm and concentrations of adiponectin were derived from a standard curve included in the ELISA plate.
Insulin and the KSEVSK peptide (SEQ ID NO: 7) served as positive controls. […] In FIG. 7, values marked by asterisks represent significant changes relative to the no insulin control (i.e., the negative control) using a two-tailed Student's T test, p<0.05.

Row | Substance | specific activity among the 9-mer, 7-mer and 6-mer fragments ([1]; Assay 2) | adipogenic activity in Assay 2 [1] | adipogenic activity in the adiponectin assay (adiponectin secretion) (3T3L cells) | adipogenic activity in the adiponectin assay (adiponectin secretion) (3T3L cells; listed as KTRASHHV) | adipogenesis quantified by Oil Red O staining, fold change relative to the negative control ([1]; Assay 2, peptide 5 μg/ml) | adipogenesis quantified by Oil Red O staining, fold change relative to the negative control ([1]; Assay 2, peptide 50 μg/ml)
1 | KSEVSK (listed as Homo sapiens) [reference compound] | highest specific activity | exhibit adipogenic activity | – | – | – | –
2 | KTRAHHV (listed as Paenibacillus polymyxa) | – | ablated adipogenic activity | lack an ability to promote adipogenesis | did not exhibit adipogenic activity | – | –
3 | KLKDENSQLK (listed as Homo sapiens) | – | exhibited activity | exhibited activity | – | significant increase in adipogenesis | significant increase in adipogenesis
4 | KLKDENSQLR (listed as Erinaceus europaeus) | – | promising results | not subsequently shown to be adipogenic | – | – | –
